Data set [1] in a line: Fluorescence (emission) measurements.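 Also: fluorescence emission spectra recorded on a spectrofluorometer, with each compound excited at its own absorption maximum.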 It counts as physicochemical.
Experimental: The fluorescence spectrum of each derivative (150 μL) was measured on a Photon Technology International (PTI) QuantaMaster™ 40 fluorescence spectrometer by excitation at the maximum absorption wavelength for each compound.
The fluorescence spectrum of each derivative (150 μL) was measured on a Photon Technology International (PTJ) QuantaMaster™ 40 fluorescence spectrometer by excitation at the maximum absorption wavelength for each compound.
The nature of data set [2]: Fluorescent quantum yield (QY) measurements. As to conditions: for Fluorescence quantum yield: in ACN. The data set is classed as physicochemical. Here is the method:
For each QY measurement, the incident excitation light spectrum was collected with 1 mL of solvent. […] Using the JASCO Quantum Yield Software, the dye QY was calculated by dividing the dye fluorescence intensity by the difference in incident light intensity in the presence and absence of dye. The minimum excitation wavelength for a full excitation incident spectrum using this setup is 360 nm.
Fluorescent quantum yield (QY) measurements. For each QY measurement, the incident excitation light spectrum was collected with 1 mL of solvent. After measuring the incident light intensity, dye (3 and 5a-5k) was added to the solvent from a concentrated stock solution to a final concentration of […] and the new spectrum (fluorescence intensity and new incident light intensity) was collected. Using the JASCO Quantum Yield Software, the dye QY was calculated by dividing the dye fluorescence intensity by the difference in incident light intensity in the presence and absence of dye. The minimum excitation wavelength for a full excitation incident spectrum using this setup is 360 nm.

The nature of data set [3]: Molar absorptivity determination.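 Also: molar absorptivity derived from UV-Vis absorbance spectra recorded for each derivative on a spectrometer.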 It counts as physicochemical.
Experimental: The absorbance spectrum of each derivative (150 μL) was measured on a Thermo Scientific Genesys 150 UV-Vis spectrometer, using 50:50 ACN/PBS as a blank.
Molar absorptivity determination. […] The absorbance spectrum of each derivative (150 μL) was measured on a Thermo Scientific Genesys 150 UV-Vis spectrometer, using 50:50 ACN/PBS as a blank.
A short description of data set [4]: Absorbance measurements (UV-Vis). As to conditions: for Abs. λabs: 25 μM; for Absorbance Wavelength: ACN:PBS buffer (50:50 v/v).
The mark [5] stands for this setting: 25 μM in ACN/PBS buffer (1:1 v/v), pH 7.4.

For the compound `Cc1c(C)n2c(/C=C/c3nc4ccccc4s3)c(C)c(=O)n2c1=O` [Compound 8c, (E)-3-(2-(benzo[d]thiazol-2-yl)vinyl)-2,5,6-trimethyl-1H,7H-pyrazolo[1,2-a]pyrazole-1,7-dione], the Stokes shift in data set [1] (ACN only) is given as 195 nm; in data set [1] (ACN:PBS (50:50 v/v)), 192 nm. Besides, the Q.Y. in data set [2] (ACN only) came to 0.4%; in data set [2] (ACN:PBS (50:50 v/v)) it was 0.16%. In addition, the results for the ε in data set [3] (ACN only) and in data set [3] (ACN:PBS (50:50 v/v)) were 29974 M⁻¹ cm⁻¹ and 29304 M⁻¹ cm⁻¹, respectively. For the same compound, the entries for the “Abs. λabs” value in data set [4] (ACN only) and in data set [4] (ACN:PBS (50:50 v/v)) were 339 nm and 344 nm, respectively.

With `Cc1c(C)n2c(/C=C/c3nc4ccc(O)cc4s3)c(C)c(=O)n2c1=O` [Compound 8e, (E)-3-(2-(6-hydroxybenzo[d]thiazol-2-yl)vinyl)-2,5,6-trimethyl-1H,7H-pyrazolo[1,2-a]pyrazole-1,7-dione], the Stokes shift in data set [1] (ACN only) was found to be 162 nm; in data set [1] (ACN:PBS (50:50 v/v)) it was 159 nm. In addition, the Q.Y. was determined as 0.52% in data set [2] (ACN only) and 0.26% in data set [2] (ACN:PBS (50:50 v/v)). For the same compound, the results for the ε in data set [3] (ACN only) and in data set [3] (ACN:PBS (50:50 v/v)) were 21094 M⁻¹ cm⁻¹ and 20460 M⁻¹ cm⁻¹, respectively. Besides, the “Abs. λabs” value is on record as 369 nm in data set [4] (ACN only) and 375 nm in data set [4] (ACN:PBS (50:50 v/v)).

As for `Cc1c(C)n2c(/C=C/c3nc4ccc(F)cc4s3)c(C)c(=O)n2c1=O` [Compound 8b, (E)-3-(2-(6-fluorobenzo[d]thiazol-2-yl)vinyl)-2,5,6-trimethyl-1H,7H-pyrazolo[1,2-a]pyrazole-1,7-dione], the Stokes shift turned out to be 192 nm in data set [1] (ACN only) and 185 nm in data set [1] (ACN:PBS (50:50 v/v)). Further, the Q.Y. in data set [2] (ACN only) was 0.56%; in data set [2] (ACN:PBS (50:50 v/v)), 0.21%. Further, the ε came out at 32612 M⁻¹ cm⁻¹ in data set [3] (ACN only) and 31088 M⁻¹ cm⁻¹ in data set [3] (ACN:PBS (50:50 v/v)). Moreover, the “Abs. λabs” value in data set [4] (ACN only) is 340 nm; in data set [4] (ACN:PBS (50:50 v/v)), 345 nm.

Consider `Cc1c(C)n2c(/C=C/c3nc4ccc([N+](=O)[O-])cc4s3)c(C)c(=O)n2c1=O` [Compound 8a, (E)-2,3,6-trimethyl-5-(2-(6-nitrobenzo[d]thiazol-2-yl)vinyl)-1H,7H-pyrazolo[1,2-a]pyrazole-1,7-dione], for which the Stokes shift in data set [1] (ACN only) was 229 nm; in data set [1] (ACN:PBS (50:50 v/v)), 99 nm. Moreover, the “Em. λem” value in data set [1] (ACN:PBS (50:50 v/v), 25 μM) amounted to 448 nm. Moreover, the Q.Y. was 0.1% in data set [2] (ACN only) and 0.06% in data set [2] (ACN:PBS (50:50 v/v)). Moreover, the values for the ε in data set [3] (ACN only) and in data set [3] (ACN:PBS (50:50 v/v)) were 26667 M⁻¹ cm⁻¹ and 27587 M⁻¹ cm⁻¹, respectively. Besides, the “Abs. λabs” value was 346 nm in data set [4] (ACN only) and 349 nm in data set [4] (ACN:PBS (50:50 v/v)).

Regarding `Cc1c(C)n2c(/C=C/c3ccc([N+](=O)[O-])cc3)c(C)c(=O)n2c1=O` [Compound 7a, (E)-2,3,6-trimethyl-5-(4-nitrostyryl)-1H,7H-pyrazolo[1,2-a]pyrazole-1,7-dione], the “Emission λmax” value in data set [1] (25 μM in ACN) was found to be 432 nm; in data set [1] (setting [5]), 468 nm. Moreover, the “Emission λem” value in data set [1] (25 μM in ACN, Table S12) was 432 nm. The Stokes shift in data set [1] (ACN/PBS buffer (1:1 v/v)) was 133 nm; in data set [1] (in ACN), 100 nm. Also, in data set [2] (ACN/PBS buffer (1:1 v/v)), the “Fluorescence QY” value came to 0.1%. The Fluorescence quantum yield in data set [2] and in data set [2] (Table S12) was 0.2% each time. Also, in data set [2] (in ACN/PBS), the “fluorescence quantum yield (QY)” value is “essentially non-fluorescent”. The “Molar Absorptivity (ε)” value was 36955 M⁻¹ cm⁻¹ in data set [3] (ACN/PBS buffer (1:1 v/v), pH 7.4) and 37871 M⁻¹ cm⁻¹ in data set [3] (in ACN, at maximum absorption wavelength). For the same compound, the “Absorbance λmax” value in data set [4] (25 μM in ACN) was 332 nm; in data set [4] (setting [5]), 335 nm. For the same compound, in data set [4] (ACN/PBS), the λabs is on record as 335 nm. For the same compound, the “Absorbance Wavelength” value in data set [4] (Table 11) and in data set [4] (Table S14) was 335 nm throughout.

The values are drawn from patent US20240336617A1, “Substituted Bimane Compounds and Methods of Use Thereof” (THE TRUSTEES OF THE UNIVERSITY OF PENNSYLVANIA, priority 2023, published 2024).
